Assay in all cases: NCI anticancer screen, dose series, 48 h
Assay [1] has as its system DLD-1.
For assay [2], the system named is DMS-114.
The subject of assay [3] is KM-20L2.
Assay [4] relates to LXFL 529.
For assay [5], the system named is M19-MEL.
The test system of assay [6] is SNB-78.
For assay [7], the system named is XF498.
Assay [8] deals with HOP-18.

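Each compound was tested at five concentrations against cells in 96-well plates for 48 hours. Here, GI50 denotes the concentration required for 50% inhibition of growth.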 Active and inactive are the calls of the source. No stated cut-off is given here; in the data, active = GI50 up to about 1.1 µM and inactive = higher.

As for `COc1cccc2c1C(CO)N1C(C#N)C3CC(C(=O)O)C(C1C2)N3C` (stereo unspecified), the GI50 in assay [1] was 2.79 µM (inactive); in assay [2], 2.21 µM (inactive); in assay [3], 3.33 µM (inactive); in assay [4], 2.56 µM (inactive); in assay [5], 3.54 µM (inactive); in assay [6] it was 2.81 µM (inactive). Also, in assay [7], the GI50 is 1.61 µM (inactive).
For the compound `CC(C)OP(=O)(OC(C)C)/C(Cl)=N/Nc1ccc([N+](=O)[O-])cc1`, the GI50 in assay [1] was > 100 µM (inactive); in assay [2] it was 81.8 µM (inactive); in assay [3] it was 50.8 µM (inactive); in assay [4], 34.7 µM (inactive); in assay [5] it was > 100 µM (inactive); in assay [6], 80.4 µM (inactive). The GI50 in assay [7] is > 100 µM (inactive).
Consider `COC(=O)C1(O)c2ccccc2N=C2C1CCN2C` (stereo unspecified), for which the GI50 in assay [1], in assay [2], in assay [8], in assay [3], in assay [4] and in assay [6] was > 100 µM (inactive) each time. In addition, the GI50 in assay [7] is > 100 µM (inactive).
Take `CCO/S(=N/S(=O)(=O)c1ccccc1)c1ccccc1[N+](=O)[O-]` (stereo unspecified): the GI50 in assay [1], in assay [2], in assay [8], in assay [3], in assay [4] and in assay [5] was > 100 µM (inactive) in each case. Further, the GI50 in assay [7] was > 100 µM (inactive).
With `O=C1C2Nc3ccccc3SC2C(=O)N1c1ccc(Br)cc1` (stereo unspecified), the GI50 in assay [1] was 15.2 µM (inactive); in assay [2] it was 13.5 µM (inactive); in assay [3], 33.2 µM (inactive); in assay [4], 20.7 µM (inactive); in assay [5] it was 57.1 µM (inactive); in assay [6], 14.2 µM (inactive). In addition, the GI50 in assay [7] was 35.6 µM (inactive).
In the case of `COc1cc(O)c2c(c1)O[C@@H]1OCC[C@H]21`, the GI50 in assay [1], in assay [2], in assay [8], in assay [3], in assay [4] and in assay [6] was > 100 µM (inactive) in each case. For the same compound, the GI50 in assay [7] was > 100 µM (inactive).
`COC(=O)C1CSC(c2csc(CCN)n2)=N1` (stereo unspecified): the GI50 in assay [2], in assay [8], in assay [3], in assay [4], in assay [5] and in assay [6] was > 100 µM (inactive) throughout. In assay [7], the GI50 is > 100 µM (inactive).
`NC(=S)NNc1c([N+](=O)[O-])cnn(-c2ccccc2)c1=O`: the GI50 in assay [1] was 14.4 µM (inactive); in assay [2], 17.3 µM (inactive); in assay [3] it was 15.9 µM (inactive); in assay [4], 9.02 µM (inactive); in assay [5], 13.2 µM (inactive); in assay [6] it was 23.3 µM (inactive). For the same compound, in assay [7], the GI50 was 18.7 µM (inactive).
As for `CCOC(=O)C(=O)Nc1nc2ccc(OC)cc2s1`, the GI50 in assay [1], in assay [8], in assay [3], in assay [4], in assay [5] and in assay [6] was > 100 µM (inactive) throughout.
As for `c1c[nH]c(Cc2nc(Cc3c[nH]cn3)c[nH]2)n1`, the GI50 in assay [1] was 4.22 µM (inactive); in assay [2], 16.3 µM (inactive); in assay [8] it was 8.28 µM (inactive); in assay [3], 0.946 µM (active); in assay [4], 6.7 µM (inactive); in assay [5], 15.4 µM (inactive). Also, the GI50 in assay [7] was 25.8 µM (inactive).
For `Clc1cc2nc[nH]c2cc1Cl`, the GI50 in assay [1], in assay [2], in assay [8], in assay [4], in assay [5] and in assay [6] was > 100 µM (inactive) throughout. Moreover, the GI50 in assay [7] was 20.1 µM (inactive).
